The text below walks through data of EP4620959A1, “CYCLIC COMPOUNDS USED AS MULTI-TARGET KINASE INHIBITORS AND PREPARATION METHOD THEREFOR” (Shanghai Institute of Organic Chemistry, Chinese Academy of …, priority 2022, dated 2024).

Molecules are shown by their SMILES.

Format in all cases: biochemical
For assay [1], the target named is LRRK2 wt (Homo sapiens, UniProt Q5S007). As to the kind of experiment: Kinase activity inhibition assay (ADP-Glo), LRRK2 wt. Conditions: for inhibition at 0.3 µM: read-out: LRRK2 wt inhibition rate @300 nM, ATP 20 µM, compound at 300 nM; for inhibition at 0.1 µM: read-out: LRRK2 wt inhibition rate at 100 nM, ATP 20 µM, compound at 100 nM. The procedure:
(§1) The kinase activity inhibition assay was performed by ICE Bioscience (Beijing) using ADP-Glo and HTRF methods.
(§2) Table 1.1-1 ADP-Glo Buffer
(§3) Table 1.2-1 ADP-Glo Kinase and Substrate Formulation
(§4) SD is the standard error, and AVE is the average value. Table 2-1 LRRK2 Activity Inhibition Test Results
A general note: ADP-Glo first removes unused ATP, then detects ADP through luciferase.

For assay [2], the target named is LRRK2 G2019S (Homo sapiens, UniProt Q5S007, G2019S). As to the kind of experiment: Kinase activity inhibition assay (ADP-Glo), LRRK2 G2019S. Conditions: for inhibition at 0.1 µM: read-out: LRRK2 G2019S inhibition rate at 100 nM, ATP 100 µM, compound at 100 nM. The protocol: as §1, §2, §3, §4
Sequence of LRRK2 G2019S (Q5S007 whole entry G2019S): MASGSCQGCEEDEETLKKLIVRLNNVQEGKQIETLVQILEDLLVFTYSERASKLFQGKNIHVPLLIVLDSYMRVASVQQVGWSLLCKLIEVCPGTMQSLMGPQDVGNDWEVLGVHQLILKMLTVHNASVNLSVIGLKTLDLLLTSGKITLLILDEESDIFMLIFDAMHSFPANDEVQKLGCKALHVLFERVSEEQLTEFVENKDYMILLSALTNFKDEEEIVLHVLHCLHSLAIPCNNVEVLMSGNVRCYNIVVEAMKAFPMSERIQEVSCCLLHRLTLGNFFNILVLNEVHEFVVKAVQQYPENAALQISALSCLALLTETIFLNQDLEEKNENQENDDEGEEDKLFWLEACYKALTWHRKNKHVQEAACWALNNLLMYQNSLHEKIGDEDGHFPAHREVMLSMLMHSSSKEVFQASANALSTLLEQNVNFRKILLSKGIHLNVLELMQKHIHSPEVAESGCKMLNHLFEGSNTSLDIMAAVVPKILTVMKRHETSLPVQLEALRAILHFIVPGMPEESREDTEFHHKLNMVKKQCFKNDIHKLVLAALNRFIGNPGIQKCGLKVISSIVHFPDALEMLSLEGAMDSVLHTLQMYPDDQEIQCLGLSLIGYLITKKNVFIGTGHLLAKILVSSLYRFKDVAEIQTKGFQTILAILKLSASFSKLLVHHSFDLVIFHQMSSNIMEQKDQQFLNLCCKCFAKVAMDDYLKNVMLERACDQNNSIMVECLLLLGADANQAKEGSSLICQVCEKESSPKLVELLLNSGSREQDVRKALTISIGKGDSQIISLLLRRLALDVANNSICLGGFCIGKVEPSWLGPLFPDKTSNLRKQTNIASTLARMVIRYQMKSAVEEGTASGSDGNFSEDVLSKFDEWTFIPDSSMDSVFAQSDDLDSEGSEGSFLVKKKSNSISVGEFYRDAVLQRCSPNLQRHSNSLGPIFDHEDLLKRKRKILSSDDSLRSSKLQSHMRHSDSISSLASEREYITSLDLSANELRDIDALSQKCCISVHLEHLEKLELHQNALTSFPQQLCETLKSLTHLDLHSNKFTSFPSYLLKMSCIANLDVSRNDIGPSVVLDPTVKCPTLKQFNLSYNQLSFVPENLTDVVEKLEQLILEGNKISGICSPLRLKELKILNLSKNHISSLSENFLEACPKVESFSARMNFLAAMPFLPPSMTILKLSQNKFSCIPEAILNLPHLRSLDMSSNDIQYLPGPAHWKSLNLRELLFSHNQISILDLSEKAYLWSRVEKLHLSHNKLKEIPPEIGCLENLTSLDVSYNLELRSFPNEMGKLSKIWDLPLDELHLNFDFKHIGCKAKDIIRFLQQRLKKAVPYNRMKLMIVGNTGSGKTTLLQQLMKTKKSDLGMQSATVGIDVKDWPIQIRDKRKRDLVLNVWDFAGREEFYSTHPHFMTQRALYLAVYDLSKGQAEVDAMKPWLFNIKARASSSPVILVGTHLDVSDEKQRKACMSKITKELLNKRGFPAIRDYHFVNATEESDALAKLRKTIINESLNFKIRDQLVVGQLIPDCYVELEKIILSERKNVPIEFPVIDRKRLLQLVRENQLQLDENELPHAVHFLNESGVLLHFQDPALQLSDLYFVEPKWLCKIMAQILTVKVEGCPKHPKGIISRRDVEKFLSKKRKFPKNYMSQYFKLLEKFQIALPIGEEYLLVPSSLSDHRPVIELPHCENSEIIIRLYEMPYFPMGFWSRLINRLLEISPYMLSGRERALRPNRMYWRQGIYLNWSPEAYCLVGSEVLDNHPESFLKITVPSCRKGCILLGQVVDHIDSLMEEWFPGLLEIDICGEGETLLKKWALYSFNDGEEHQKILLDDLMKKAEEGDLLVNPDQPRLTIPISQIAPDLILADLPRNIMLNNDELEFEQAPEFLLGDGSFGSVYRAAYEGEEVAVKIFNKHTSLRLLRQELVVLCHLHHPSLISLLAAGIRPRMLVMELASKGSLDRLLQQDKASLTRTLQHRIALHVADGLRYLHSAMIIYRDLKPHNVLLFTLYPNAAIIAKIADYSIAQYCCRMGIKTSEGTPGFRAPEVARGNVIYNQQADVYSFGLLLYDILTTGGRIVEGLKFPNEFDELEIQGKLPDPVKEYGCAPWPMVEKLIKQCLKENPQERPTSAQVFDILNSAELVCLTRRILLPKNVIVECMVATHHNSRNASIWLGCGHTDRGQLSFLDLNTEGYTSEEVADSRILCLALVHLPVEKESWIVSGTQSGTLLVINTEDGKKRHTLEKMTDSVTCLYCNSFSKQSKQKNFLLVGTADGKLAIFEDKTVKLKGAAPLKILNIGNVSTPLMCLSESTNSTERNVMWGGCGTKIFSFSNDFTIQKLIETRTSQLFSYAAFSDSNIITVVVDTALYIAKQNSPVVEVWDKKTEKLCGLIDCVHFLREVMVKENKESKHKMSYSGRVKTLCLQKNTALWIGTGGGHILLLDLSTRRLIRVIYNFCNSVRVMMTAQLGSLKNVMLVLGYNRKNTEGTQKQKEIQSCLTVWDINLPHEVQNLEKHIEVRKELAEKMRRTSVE
The target of assay [3] is FGFR4 (Homo sapiens, UniProt P22455). In words: Kinase activity inhibition assay (HTRF), FGFR4. Conditions: ATP 50 µM. The protocol:
as §1
(§5) Table 1.2-2 HTRF Kinase and Substrate Formulation
(§6) • 1) 2×ATP/substrate solution and 2×kinase/metal ion solution were prepared using kinase reaction buffer; • 2) 20 nL (ADP-GLo) or 40 nL (HTRF) of compound dilution was transferred using Echo 655 onto a 384-well assay plate; after centrifugation, 2 µL of 2×kinase and metal ion solution were added to the 384-well assay plate, centrifuged at 1000 rpm for 1 min, and incubated at 25°C for 10 min; • 3) 2 µL of 2×substrate and ATP solution were added to the 384-well assay plate, centrifuged at 1000 rpm for 1 min, and incubated at 25°C for 60 min. • 4) 4 µL of ADP-Glo was transferred to the 384-well assay plate, entrifuged at 1000 rpm for 1 min, and incubated at 25°C for 40 min. • 5) 8 µL of detection solution was transferred to the 384-well assay plate, centrifuged at 1000 rpm for 1 min, and incubated at 25°C for 40 min. • 6) Luminescence signals was read using a multifunctional microplate reader.
as §4
(Time-resolved FRET reads energy transfer from a long-lived donor to a nearby acceptor.)

In assay [4] the target is FGFR4 N535K (Homo sapiens, UniProt P22455, N535K). In words: Kinase activity inhibition assay (HTRF), FGFR4 N535K. Conditions: ATP 100 µM. The procedure: as §1, §5, §6, §4
Sequence of FGFR4 N535K (P22455 22-802 N535K): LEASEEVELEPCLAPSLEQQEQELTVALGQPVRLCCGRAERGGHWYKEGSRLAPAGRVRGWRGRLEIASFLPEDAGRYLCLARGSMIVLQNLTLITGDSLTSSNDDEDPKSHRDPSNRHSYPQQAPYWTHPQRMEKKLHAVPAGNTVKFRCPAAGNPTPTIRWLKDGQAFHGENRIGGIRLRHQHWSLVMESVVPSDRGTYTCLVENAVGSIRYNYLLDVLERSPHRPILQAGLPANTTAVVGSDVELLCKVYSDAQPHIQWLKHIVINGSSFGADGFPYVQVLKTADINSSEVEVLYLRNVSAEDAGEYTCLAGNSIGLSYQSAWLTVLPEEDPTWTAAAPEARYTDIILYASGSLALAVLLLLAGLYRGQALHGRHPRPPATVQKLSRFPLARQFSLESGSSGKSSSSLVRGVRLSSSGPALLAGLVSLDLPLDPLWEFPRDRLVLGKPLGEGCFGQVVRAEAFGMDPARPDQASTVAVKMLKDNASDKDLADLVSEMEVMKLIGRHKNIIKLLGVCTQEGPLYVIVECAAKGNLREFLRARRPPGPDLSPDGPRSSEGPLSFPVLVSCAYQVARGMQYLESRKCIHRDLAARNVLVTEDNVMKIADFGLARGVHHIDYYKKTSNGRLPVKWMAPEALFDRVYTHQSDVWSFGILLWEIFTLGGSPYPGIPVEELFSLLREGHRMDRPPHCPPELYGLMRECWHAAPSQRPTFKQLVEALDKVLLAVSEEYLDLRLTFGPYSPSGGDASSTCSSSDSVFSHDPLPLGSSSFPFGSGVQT

Sequence of LRRK2 wt (Q5S007 whole entry): as the sequence (Q5S007 whole entry G2019S) above, with S2019G counted along it
Sequence of FGFR4 (P22455 22-802): as the sequence (P22455 22-802 N535K) above, with K514N counted along it

Broadly, the inhibition is the drop in the measured response relative to a control, in per cent. Consider `Cc1nn2cc1Nc1ncc3c(Cl)cn(c3n1)CCCN(C)C(=O)C2(C)C` [Example T-7, (E)-1^5-Chloro-3^3,4,4,6-tetramethyl-1^7H,3^1H-2,6-diaza-1(2,7)-pyrrolo[2,3-d]pyrimidine-3(4,1)-pyrazolacyclononan-5-one], for which the inhibition at 0.3 µM in assay [1] came to 7%. The inhibition at 0.1 µM in assay [2] stood at 4.3%. In general, IC50 refers to the midpoint of a concentration-inhibition curve. A lower IC50 goes with greater potency. With `C=CC(=O)N[C@H]1CCOC[C@H]1Nc1ncc2cc(-c3c(Cl)c(OC)cc(OC)c3Cl)ccc2n1` [BLU554], the half-inhibitory concentration (IC50) stood at 2.98 nM in assay [3] and 42.5 nM in assay [4]. Take `Cc1nn2cc1Nc1ncc(C(F)(F)F)c(n1)NCCNC(=O)C2` [Example T-15, (E)-3^3-Methyl-1^5-(trifluoromethyl)-3^1H-2,6,9-triaza-1(2,4)-pyrimidina-3(4,1)-pyrazolacyclononan-5-one]: the inhibition at 0.3 µM in assay [1] was found to be 5%. Also, in assay [2], the inhibition at 0.1 µM was -9.6%. Take `Cc1nn2cc1Nc1ncc(C(F)(F)F)c(n1)NCCCNC(=O)C2` [Example T-14, (E)-3^3-Methyl-1^5-(trifluoromethyl)-3^1H-2,6,10-triaza-1(2,4)-pyrimidina-3(4,1)-pyrazolacyclodecan-5-one]: the inhibition at 0.1 µM in assay [1] amounted to 87%; in assay [2], 84%. In the case of `CNc1nc(Nc2cn(C(C)(C)C#N)nc2C)ncc1C(F)(F)F` [DNL-201], the half-inhibitory concentration (IC50) in assay [1] (ATP 20 µM) is 1.27 nM; in assay [2] (ATP 100 µM), 2.88 nM.

On to `Cc1nn2cc1Nc1ncc3c(Cl)cn(c3n1)CCCNC(=O)C2(C)C` [Example T-6, (E)-1^5-Chloro-3^3,4,4-trimethyl-1^7H,3^1H-2,6-diaza-1(2,7)-pyrrolo[2,3-d]pyrimidine-3(4,1)-pyrazolacyclononan-5-one], for which the inhibition at 0.1 µM came to 92% in assay [1] and 88% in assay [2].

In the case of `Cc1nn2cc1Nc1ncc(C(F)(F)F)c(n1)NCCNC(=O)C2(C)C` [Example T-12, (E)-3^3,4,4-Trimethyl-1^5-(trifluoromethyl)-3^1H-2,6,9-triaza-1(2,4)-pyrimidina-3(4,1)-pyrazolacyclononan-5-one], the inhibition at 0.1 µM in assay [1] is 5.7%. The inhibition at 0.3 µM in assay [2] (read-out: LRRK2 G2019S inhibition rate @300 nM, ATP 100 µM, compound at 300 nM) came to 0.34%. Take `CN1CCCNc2nc(ncc2C(F)(F)F)Nc2cn(nc2C2CC2)C2CC2C1=O` (racemic) [Example T-10, (1^1R,1^2S,2^1R,E)-2^3-Cyclopropyl-9-methyl-4^5-(trifluoromethyl)-2^1H-3,5,9-triaza-4(2,4)-pyrimidina-2(1,4)-pyrazola-1(1,2)-cyclopropacyclodecan-10-one]: the inhibition at 0.1 µM amounted to 94% in assay [1] and 92% in assay [2]. The like results for `O=C1NCCCNc2nc(ncc2C(F)(F)F)Nc2cn(nc2C2CC2)C2CC12` (racemic) [Example T-11, (1^1R,1^2R,2^1S,E)-2^3-Cyclopropyl-4^5-(trifluoromethyl)-2^1H-3,5,9-triaza-4(2,4)-pyrimidina-2(1,4)-pyrazola-1(1,2)-cyclopropacyclodecan-10-one] were, in that order, 89% and 90%.

Turning to `Cc1nn2cc1Nc1ncc3c(Cl)nn(c3n1)CCCNC(=O)C2(C)C` [Example T-8, (E)-1^3-Chloro-3^3,4,4-trimethyl-1^1H,3^1H-2,6-diaza-1(6,1)pyrazolo[3,4-d]pyrimidine-3(4,1)-pyrazolacyclononan-5-one], the inhibition at 0.1 µM in assay [1] turned out to be 64%; in assay [2], 52%. Take `Cc1nn2cc1Nc1ncc3c(Cl)cn(c3n1)CCCCNC(=O)C2(C)C` [Example T-22, (E)-1^5-Chloro-3^3,4,4-trimethyl-1^7H,3^1H-2,6-diaza-1(2,7)-pyrrolo[2,3-d]pyrimidine-3(4,1)-pyrazolacyclodecan-5-one]: the inhibition at 0.1 µM in assay [1] was determined as 92.5%. For the compound `CC1(C)C(=O)NCCCc2cc(Cl)c3cnc(nn23)Nc2cn1nc2C1CC1` [Example T-28, (1^1Z,3^4E)-1^5-Chloro-3^3-cyclopropyl-4,4-dimethyl-3^1H-2,6-diaza-1(2,7)-pyrrolo[2,1-f][1,2,4]triazine-3(4,1)-pyrazolacyclononan-5-one], the inhibition at 0.1 µM in assay [1] came out at 98.3%. For `Cc1nn2cc1Nc1ncc(C(F)(F)F)c(n1)NC/C=C/CNC(=O)C2(C)C` [Example T-40, (3^4E,8E)-3^3,4,4-Trimethyl-1^5-(trifluoromethyl)-3^1H-2,6,11-triaza-1(2,4)-pyrimidina-3(4,1)-pyrazolylundecapentaene-5-one], the inhibition at 0.1 µM in assay [1] came out at 56.1%. As to `Cc1nn2cc1Nc1ncc(C(F)(F)F)c(n1)NCCCCNC(=O)C2(C)C` [Example T-13, (E)-3^3,4,4-Trimethyl-1^5-(trifluoromethyl)-3^1H-2,6,11-triaza-1(2,4)-pyrimidina-3(4,1)-pyrazolacycloundecan-5-one], the inhibition at 0.1 µM is 96% in assay [1] and 92% in assay [2].

For the compound `Cc1nn2cc1Nc1ncc(C(F)(F)F)c(n1)NCCn1ncc(n1)CC2(C)C` [Example T-36, (3^4E,6^3Z)-3^3,4,4-Trimethyl-1^5-(trifluoromethyl)-3^1H,6^2H-2,9-diaza-1(2,4)-pyrimidina-6(4,2)-triazole-3(4,1)-pyrazolacyclononane], the inhibition at 0.1 µM in assay [1] worked out at 28.9%. On to `Cc1nn2cc1Nc1ncc(C(F)(F)F)c(n1)N(C)CCCNC(=O)C2(C)C` [Example T-32, (E)-3^3,4,4,10-Tetramethyl-1^5-(trifluoromethyl)-3^1H-2,6,10-triaza-1(2,4)-pyrimidina-3(4,1)-pyrazolacyclodecan-5-one], for which the inhibition at 0.1 µM in assay [1] was determined as 91.6%. Still for that read-out and setting: the result for `Cc1nn2cc1Nc1ncc3[nH]cc(c3n1)CCCNC(=O)C2(C)C` [Example T-18, (E)-3^3,4,4-Trimethyl-1^5H,3^1H-2,6-diaza-1(2,7)-pyrrolo[3,2-d]pyrimidine-3(4,1)-pyrazolacyclononan-5-one] reads 6.61%. As for `Cc1nn2cc1Nc1ncc(C(F)(F)F)c(n1)NC(C)(C)CCNC(=O)C2(C)C` [Example T-45, (E)-3^3,4,4,9,9-Pentamethyl-1^5-(trifluoromethyl)-3^1H-2,6,10-triaza-1(2,4)-pyrimidina-3(4,1)-pyrazolacyclodecan-5-one], the inhibition at 0.1 µM in assay [1] is -1.97%. Take `Cc1nn2cc1Nc1ncc(C(F)(F)F)c(n1)NCCCN(C)C(=O)C2(C)C` [Example T-33, (E)-3^3,4,4,6-Tetramethyl-1^5-(trifluoromethyl)-3^1H-2,6,10-triaza-1(2,4)-pyrimidina-3(4,1)-pyrazolacyclodecan-5-one]: the inhibition at 0.1 µM in assay [1] was found to be 2.45%.

For `Cc1nn2cc1Nc1ncc(C(F)(F)F)c(n1)NCCC(C)(C)NC(=O)C2(C)C` [Example T-39, (E)-3^3,4,4,7,7-Pentamethyl-1^5-(trifluoromethyl)-3^1H-2,6,10-triaza-1(2,4)-pyrimidina-3(4,1)-pyrazolacyclodecan-5-one], the inhibition at 0.1 µM in assay [1] is 28.9%.

With `Cc1nn2cc1Nc1ncc(C(F)(F)F)c(n1)NCCC(C)NC(=O)C2(C)C` (centres unmarked) [Example T-38, (E)-3^3,4,4,7-Tetramethyl-1^5-(trifluoromethyl)-3^1H-2,6,10-triaza-1(2,4)-pyrimidina-3(4,1)-pyrazolacyclodecan-5-one], in assay [1], the inhibition at 0.1 µM amounted to 37.7%.
